In patent US6710047B2, “Phthalazines with angiogenesis inhibiting activity” (Novartis AG, priority 1997, dated 2004) one finds melting point and IC50 data, which are given here for 49 compounds.

The target in data set [1] is T1, Flt-1 VEGF-receptor tyrosine kinase (Homo sapiens, UniProt P17948).
T1 sequence (P17948 827-1158 limits assumed): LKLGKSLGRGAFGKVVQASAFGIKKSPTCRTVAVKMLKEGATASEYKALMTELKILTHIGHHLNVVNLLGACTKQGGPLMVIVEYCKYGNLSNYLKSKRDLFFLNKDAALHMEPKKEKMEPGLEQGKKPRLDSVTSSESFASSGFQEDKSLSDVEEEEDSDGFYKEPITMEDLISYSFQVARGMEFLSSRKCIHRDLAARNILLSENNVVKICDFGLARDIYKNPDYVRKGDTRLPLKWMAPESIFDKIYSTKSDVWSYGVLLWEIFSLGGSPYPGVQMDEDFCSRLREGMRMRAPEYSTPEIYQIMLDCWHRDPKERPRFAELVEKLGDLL
Nature of the data set: Test for activity against Flt-1 VEGF-receptor tyrosine kinase.
Description: Test for activity against VEGF-receptor tyrosine kinase. The test is conducted using Flt-1 VEGF-receptor tyrosine kinase. […] The reaction is then ended by the addition of 10 μl 0.25 M ethylenediaminetetraacetate (EDTA) pH 7. Using a multichannel dispenser (LAB SYSTEMS, USA), an aliquot of 20 μl is applied to a PVDF (=polyvinyl difluoride) Immobilon P membrane (Millipore, USA), incorporating a Millipore microtiter filter manifold, and connected to a vacuum.
The test is conducted using Flt-1 VEGF-receptor tyrosine kinase, as described hereinabove.

Where [2] appears, read: kinase domain of Flt-1, poly(Glu,Tyr) 4:1, 8 μM [33P]-ATP, 15 minutes at room temperature.

Counter-ions that a name gives are not always drawn. Like-named read-outs stand apart in the source and are kept apart here.

In turn, `COc1cccc(Nc2nnc(Cc3ccncc3)c3ccccc23)c1` had a melting point of 118 to 120 °C.
For `C[C@@H](Nc1nnc(Cc2ccncc2)c2ccccc12)c1ccccc1.Cl.Cl`, the melting point is 190 °C (dec.).
For `Oc1cccc(Nc2nnc(Cc3ccncc3)c3ccccc23)c1`, the melting point lay within 217 to 219 °C.
For `CC(=O)Nc1ccc2c(Cc3ccncc3)nnc(Nc3ccc(Cl)cc3)c2c1.Cl`, the melting point was in the range of 260 to 265 °C.
For the compound `COc1ccc(Nc2nnc(Cc3ccncc3)c3ccc(NC(C)=O)cc23)cc1.Cl`, the melting point lay within 160 to 163 °C.
The same measure, in the same setting: then `COc1cccc(Nc2nnc(Cc3ccncc3)c3ccc(NC(C)=O)cc23)c1.Cl`, with 156 to 159 °C; and `CC(=O)Nc1ccc2c(Cc3ccncc3)nnc(Nc3ccccc3)c2c1.Cl`, with 162 to 166 °C.
Regarding `CC(C)(C)c1ccc(Nc2nnc(Cc3ccncc3)c3ccccc23)cc1.Cl.Cl`, the melting point fell in the range of 196 to 200 °C.
`c1ccc(-c2ccc(Nc3nnc(Cc4ccncc4)c4ccccc34)cc2)cc1`: the melting point lay within 189 to 191 °C.
On the same count and under the same terms, then `Cl.Cl.c1ccc(Nc2nnc(Cc3ccncc3)c3ccccc23)cc1`, with 217 to 220 °C.
The same measure, in the same setting: then `CC(C)c1ccc(Nc2nnc(Cc3ccncc3)c3ccccc23)cc1` (as salt: hydrochloride) [Example 47, 1-(4-Isoprolylanilino)-4-(4-pyridylmethyl)phthalazine dihydrochloride], with over 250 °C; and `Cc1ccc(Nc2nnc(Cc3ccncc3)c3ccccc23)cc1O` (hydrate or solvate) [Example 67B], with 192 to 195 °C.
`FC(F)C(F)(F)Oc1cccc(Nc2nnc(Cc3ccncc3)c3ccccc23)c1` (hydrate or solvate) [Example 67S] displayed a melting point of 185 to 187 °C.
In data set [1] (setting [2]), `CC(c1ccncc1)c1nnc(Nc2ccc(Cl)cc2)c2ccccc12` (racemic) [Example 64, rac 1-(4-Chloroanilino) 4-[1-(4-pyridyl)ethyl]phthalazine] showed a concentration for half-maximal inhibition (IC50) of 907 nM.
With `Clc1cccc(Nc2nnc(Cc3ccncc3)c3ccccc23)c1` [Example 5, 1-(3-Chloroanilino)-4-(4-pyridylmethyl)phthalazine 1,8 hydrochloride], in data set [1], the IC50 came out at 210 nM.
In the case of `c1ccc(CNc2nnc(Cc3ccncc3)c3ccccc23)cc1` [Example 7, 1-Benzylamino-4-(4-pyridylmethyl)phthalazine], the melting point is 137 to 138 °C. In data set [1], this compound showed a half-inhibitory concentration (IC50) of 640 nM.
`COc1ccc(Nc2nnc(Cc3ccncc3)c3ccccc23)cc1` [Example 8, 1-(4-Methoxyanilino)-4-(4-pyridylmethyl)phthalazine] returned a melting point of 223 to 224 °C. Further, the half-maximal inhibitory concentration (IC50) in data set [1] worked out at 330 nM.
In turn, `c1ccc(COc2cccc(Nc3nnc(Cc4ccncc4)c4ccccc34)c2)cc1` [Example 9, 1-(3-Benzyloxyanilino)-4-(4-pyridylmethyl)phthalazine] yielded a melting point of 142 to 143 °C. The compound further came in with an IC50 in data set [1] of 970 nM.
`CC(=O)Nc1ccc(Nc2nnc(Cc3ccncc3)c3ccccc23)cc1` [Example 11, 1-(4-Acetaminoanilino)-4-(4-pyridylmethyl)phthalazine] came in with a melting point of over 270 °C.
`COc1ccccc1Nc1nnc(Cc2ccncc2)c2ccccc12` [Example 14, 1-(2-Methoxyanilino)-4-(4-pyridylmethyl)phthalazine]: the melting point is 190 to 191 °C. Moreover, half-maximal inhibition in data set [1] (IC50) required 740 nM.
With `c1cncc(Nc2nnc(Cc3ccncc3)c3ccccc23)c1` [Example 15, 1-(3-Pyridylamino)-4-(4-pyridylmethyl)phthalazine], the melting point fell in the range of 137 to 139 °C.
In turn, `FC(F)(F)c1ccc(Nc2nnc(Cc3ccncc3)c3ccccc23)cc1` [Example 16, 1-(4-Trifluoromethylanilino)-4-(4-pyridylmethyl)phthalazine] showed a melting point of 205 to 206 °C. The same compound came in with a 50% inhibitory concentration (IC50) in data set [1] of 520 nM.
For `Fc1ccc(Nc2nnc(Cc3ccncc3)c3ccccc23)cc1` [Example 17, 1-(4-Fluoroanilino)-4-(4-pyridylmethyl)phthalazine] the same measures were 129 to 131 °C and 290 nM.
For `Oc1ccc(Nc2nnc(Cc3ccncc3)c3ccccc23)cc1` [Example 19, 1-(4-Hydroxyanilino)-4-(4-pyridylmethyl)phthalazine] the same measures were 239 to 241 °C and 730 nM.
For `CS(=O)(=O)O.CS(=O)(=O)O.CS(=O)(=O)O.Nc1cccc(Nc2nnc(Cc3ccncc3)c3ccccc23)c1` [Example 20, 1-(3-Aminoanilino)-4-(4-pyridylmethyl)phthalazine trimesylate] the same measures were 249 to 251 °C and 500 nM.
`Clc1ccc(Nc2nnc(Cc3ccncc3)c3ccccc23)cc1Cl` [Example 21, 1-(3,4-Dichloroanilino)-4-(4-pyridylmethyl)phthalazine] came in with a melting point of 249 to 250 °C. Further, in data set [1], the midpoint of inhibition, the IC50, lay at 410 nM.
`Brc1ccc(Nc2nnc(Cc3ccncc3)c3ccccc23)cc1` [Example 22, 1-(4-Bromoanilino)-4-(4-pyridylmethyl)phthalazine] came in with a melting point of 201 to 202 °C. In data set [1], this compound registered an IC50 of 180 nM.
For `COc1ccc(Nc2nnc(Cc3ccncc3)c3ccccc23)cc1Cl` [Example 23, 1-(3-Chloro-4-methoxyanilino)-4-(4-pydridylmethyl)phthalazine] the same measures were 195 to 197 °C and 515 nM.
Taken in the same sequence, the figures for `N#Cc1ccc(Nc2nnc(Cc3ccncc3)c3ccccc23)cc1` [Example 24, 1-(4-Cyanoanilino)-4-(4-pyridylmethyl)phthalazine] were 228 to 230 °C and 666 nM.
In turn, `Nc1ccc2c(Cc3ccncc3)nnc(Nc3ccc(Cl)cc3)c2c1` [Example 32A, 7-Amino-1-(4-chloroanilino)-4-(4-pyridylmethyl)phthalazine hydrochloride] gave a half-inhibitory concentration (IC50) in data set [1] of 42 nM.
Same read-out and setting: then `Nc1ccc2c(Cc3ccncc3)nnc(Nc3cccc(Cl)c3)c2c1` [Example 32B], with 1000 nM.
With `Cc1ccc(Nc2nnc(Cc3ccncc3)c3ccc(N)cc23)cc1` [Example 32D], half-maximal inhibition in data set [1] (IC50) required 480 nM. Compared with the last compound, the IC50 is about 2.1-fold lower.
`COc1cccc(Nc2nnc(Cc3ccncc3)c3ccc(N)cc23)c1` [Example 32F] showed an IC50 in data set [1] of 793 nM.
Compound `Cc1ccc(Nc2nnc(Cc3ccncc3)c3ccccc23)cc1` [Example 37, 1-(4-Methylanilino)-4-(4-pyridylmethyl)phthalazine] showed a melting point of 152 to 153 °C. In data set [1], this compound returned an IC50 of 154 nM.
Taken in the same sequence, the figures for `Fc1ccc(Nc2nnc(Cc3ccncc3)c3ccccc23)cc1Cl` [Example 42, 1-(3-Chloro-4-fluoroanilino)-4-(4-pyridylmethyl)phthalazine] were 185 to 187 °C and 211 nM.
For `Cc1cccc(Nc2nnc(Cc3ccncc3)c3ccccc23)c1` [Example 43, 1-(3-Methylanilino)-4-(4-pyridylmethyl)phthalazine] the same measures were 141 to 143 °C and 9070 nM.
In the case of `CC(C)c1ccc(Nc2nnc(Cc3ccncc3)c3ccccc23)cc1` [Example 47, 1-(4-Isoprolylanilino)-4-(4-pyridylmethyl)phthalazine dihydrochloride], the IC50 in data set [1] was 188 nM.
`Clc1ccc(Nc2nnc(NCc3ccncc3)c3ccccc23)cc1` [Example 49, 1-(4-Chloroanilino)-4-(4-pyridylmethylamino)phthalazine] displayed a melting point of 233 to 236 °C.
On to `COc1cc(Nc2nnc(Cc3ccncc3)c3ccccc23)cc(OC)c1OC` [Example 54, 1-(3,4,5-Trimethoxyanilino)-4-(4-pyridylmethyl)phthalazine], for which the melting point was in the range of 110 to 111 °C.
On the same count and under the same terms, then `[O-][n+]1nc(Nc2ccc(Cl)cc2)c2ccccc2c1Cc1ccncc1` [Example 55, 1-(4-Chloroanilino)-4-(4-pyridylmethyl)phthalazine-3-oxide], with 226 to 228 °C.
`Cc1ccc(Nc2nnc(Cc3ccncc3)c3ccccc23)cc1O` [Example 67B] showed a 50% inhibitory concentration (IC50) in data set [1] of 335 nM.
In turn, `CC(C)c1cccc(Nc2nnc(Cc3ccncc3)c3ccccc23)c1` [Example 67Q] registered a concentration for half-maximal inhibition (IC50) in data set [1] of 328 nM.
The compound `FC(F)C(F)(F)Oc1cccc(Nc2nnc(Cc3ccncc3)c3ccccc23)c1` [Example 67S] yielded an IC50 in data set [1] of 1200 nM.
The same measure, in the same setting: then `CC(=O)c1cccc(Nc2nnc(Cc3ccncc3)c3ccccc23)c1` [Example 70A, 1-(3-Acetylanilino)-4-(4-pyridylmethyl)phthalazine], with 1000 nM.
`CC1(c2ccc(Nc3nnc(Cc4ccncc4)c4ccccc34)cc2)OCCO1` [Example 70B, 1-[(2′-methyl-1′,3′-dioxolan-2′-yl)-anilino]-4-(4-pyridylmethyl)phthalazine] displayed an IC50 in data set [1] (setting [2]) of 1000 nM.
On to `Clc1cccc(Oc2nnc(Cc3ccncc3)c3ccccc23)c1` [Example 72A, 1-(3-Chlorophenoxy)-4-(4-pyridylmethyl)phthalazine], for which the half-maximal inhibitory concentration (IC50) in data set [1] came out at 1270 nM.
The same measure, in the same setting: then `Cc1c(Cc2ccncc2)nnc(Nc2ccc(Cl)cc2)c1C` [Example 82A, 3-(4-chloroanilino)-4,5-dimethyl-6-(pyridin-4-yl)methylpyridazine], with 478 nM.
Still for that read-out and setting: then `Cc1ccc(Nc2nnc(Cc3ccncc3)c(C)c2C)cc1` [Example 82B, 3-(4-methylanilino)-4,5-dimethyl-6-(pyridin-4-yl)methylpyridazine], with 774 nM; and `Cc1cccc(Nc2nnc(Cc3ccncc3)c(C)c2C)c1` [Example 82E, 3-(3-methylanilino)-4,5-dimethyl-6-(pyridin-4-yl)methylpyridazine], with 2500 nM.
